Drawing on US12448388B2, “PRMT5 inhibitors and uses thereof” (Gilead Sciences, Inc., priority 2023, dated 2025), this text covers CC50 for 25 molecules.

This assay concerns HCT116 MTAP-deleted cell lines. In words: Cell viability assay (CellTiter-Glo, 7 days), HCT116 MTAP-deleted. It counts as cell-based. As to conditions: Homo sapiens, HCT-116; cell viability assay, HCT116 MTAP-deleted; class symbols; read-out: CC50. A digest of the protocol: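 HCT116 MTAP-deleted and wild-type cells exposed to serially diluted compound for 7 days at 37 °C, 5% CO2. Viability read by CellTiter-Glo luminescence; CC50 derived per line, with selectivity comparing WT to MTAP-deleted, limited solubility can inflate values marked *.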

As for `CN(C(=O)c1cc2c(cn1)nc(N)c1cncn12)[C@@H]1COc2cc(C34CC(C(F)(F)F)(C3)C4)ccc21` [Ff-642, (S)-4-amino-N-methyl-N-(6-(3-(trifluoromethyl)bicyclo[1.1.1]pentan-1-yl)-2,3-dihydrobenzofuran-3-yl)imidazo[1,5-a]pyrido[3,4-e]pyrazine-8-carboxamide], the CC50 is 100 to 1000 nM. In the case of `Nc1nc2ccc(C(=O)N3C[C@@H](F)C[C@@H]4Oc5cc(C(F)(F)F)ccc5[C@@H]43)cc2n2cncc12` [Ff-649, (4-aminoimidazo[1,5-a]quinoxalin-8-yl)((3S,4aS,9bS)-3-fluoro-7-(trifluoromethyl)-3,4,4a,9b-tetrahydrobenzofuro[3,2-b]pyridin-1(2H)-yl)methanone], the CC50 is under 100 nM. For `Cc1ncc2c(N)nc3cc(F)c(C(=O)N4CCC[C@@H]5Oc6c(ccc(C(F)(F)F)c6F)[C@@H]54)cc3n12` [Ff-651, (4-amino-7-fluoro-1-methylimidazo[1,5-a]quinoxalin-8-yl)((4aS,9bS)-6-fluoro-7-(trifluoromethyl)-3,4,4a,9b-tetrahydrobenzofuro[3,2-b]pyridin-1(2H)-yl)methanone], the CC50 is under 100 nM. Regarding `CN(C(=O)c1cc2c(cc1F)nc(N)c1cncn12)[C@@H]1COc2cc(S(F)(F)(F)(F)F)ccc21` [Ff-652, (S)-4-amino-7-fluoro-N-methyl-N-(6-(pentafluoro-16-sulfaneyl)-2,3-dihydrobenzofuran-3-yl)imidazo[1,5-a]quinoxaline-8-carboxamide], the CC50 is under 100 nM.

`CN(C(=O)c1cc2c(cc1F)nc(N)c1cncn12)[C@@H]1COc2cc(C(F)F)c(Cl)cc21` [Ff-653, (S)-4-amino-N-(5-chloro-6-(difluoromethyl)-2,3-dihydrobenzofuran-3-yl)-7-fluoro-N-methylimidazo[1,5-a]quinoxaline-8-carboxamide]: the CC50 is under 100 nM.

Take `C[C@H]1C[C@@H](N(C)C(=O)c2cc3c(cc2F)nc(N)c2cncn23)c2ccc(C(F)(F)F)cc21` [Ff-654, 4-amino-7-fluoro-N-methyl-N-((1R,3S)-3-methyl-5-(trifluoromethyl)-2,3-dihydro-1H-inden-1-yl)imidazo[1,5-a]quinoxaline-8-carboxamide]: the CC50 is under 100 nM.

As to `Nc1nc2cc(F)c(C(=O)N3CCC[C@@H]4Oc5cc(-c6cnn(C(F)(F)F)c6)ccc5[C@@H]43)cc2n2cncc12` [Ff-655, (4-amino-7-fluoroimidazo[1,5-a]quinoxalin-8-yl)((4aS,9bS)-7-(1-(trifluoromethyl)-1H-pyrazol-4-yl)-3,4,4a,9b-tetrahydrobenzofuro[3,2-b]pyridin-1(2H)-yl)methanone], the CC50 is under 100 nM. The same measure for `Cc1ncc2c(N)nc3cnc(C(=O)N4C[C@@H](F)C[C@@H]5Oc6cc(C(F)(F)F)ccc6[C@@H]54)cc3n12` [Ff-656, (4-amino-1-methylimidazo[1,5-a]pyrido[3,4-e]pyrazin-8-yl)((3S,4aS,9bS)-3-fluoro-7-(trifluoromethyl)-3,4,4a,9b-tetrahydrobenzofuro[3,2-b]pyridin-1(2H)-yl)methanone]: under 100 nM; for `Cc1ncc2c(N)nc3cc(F)c(C(=O)N4C[C@@H](F)C[C@@H]5Oc6cc(C(F)(F)F)ccc6[C@@H]54)cc3n12` [Ff-657, (4-amino-7-fluoro-1-methylimidazo[1,5-a]quinoxalin-8-yl)((3S,4aS,9bS)-3-fluoro-7-(trifluoromethyl)-3,4,4a,9b-tetrahydrobenzofuro[3,2-b]pyridin-1(2H)-yl)methanone]: under 100 nM.

As for `Cc1ncn2c1c(N)nc1cc(F)c(C(=O)N3C[C@@H](F)C[C@@H]4Oc5cc(C(F)(F)F)ccc5[C@@H]43)cc12` [Ff-659, (4-amino-7-fluoro-3-methylimidazo[1,5-a]quinoxalin-8-yl)((3S,4aS,9bS)-3-fluoro-7-(trifluoromethyl)-3,4,4a,9b-tetrahydrobenzofuro[3,2-b]pyridin-1(2H)-yl)methanone], the CC50 was under 100 nM. Consider `Nc1nc2cc(F)c(C(=O)N3C[C@@H](F)C[C@@H]4Oc5cc(OC(F)(F)F)ccc5[C@@H]43)cc2n2cncc12` [Ff-666, (4-amino-7-fluoroimidazo[1,5-a]quinoxalin-8-yl)((3S,4aS,9bS)-3-fluoro-7-(trifluoromethoxy)-3,4,4a,9b-tetrahydrobenzofuro[3,2-b]pyridin-1(2H)-yl)methanone], for which the CC50 is under 100 nM. Turning to `Nc1nc2cc(F)c(C(=O)N3CCC4(CCc5ccccc54)C3)cc2n2cncc12` (stereo not shown) [Ff-670, (4-amino-7-fluoroimidazo[1,5-a]quinoxalin-8-yl)(2,3-dihydrospiro[indene-1,3′-pyrrolidin]-1′-yl)methanone], the CC50 is 100 to 1000 nM. The same measure for `C[C@@H]1C[C@@H](N(C)C(=O)c2cc3c(cc2F)nc(N)c2cncn23)c2ccc(C(F)(F)F)cc21` [Ff-671, 4-amino-7-fluoro-N-methyl-N-((1R,3R)-3-methyl-5-(trifluoromethyl)-2,3-dihydro-1H-inden-1-yl)imidazo[1,5-a]quinoxaline-8-carboxamide]: under 100 nM; for `CN(C(=O)c1cc2c(cc1F)nc(N)c1cncn12)[C@@H]1COc2c1ccc(OC(F)F)c2F` [Ff-672, (S)-4-amino-N-(6-(difluoromethoxy)-7-fluoro-2,3-dihydrobenzofuran-3-yl)-7-fluoro-N-methylimidazo[1,5-a]quinoxaline-8-carboxamide]: under 100 nM; for `Nc1nc2cc(F)c(C(=O)N3CCC4(CC4)[C@@H]4Oc5cc(C(F)(F)F)ccc5[C@@H]43)cc2n2cncc12` [Ff-676, (4-amino-7-fluoroimidazo[1,5-a]quinoxalin-8-yl)((4aS,9bS)-7-(trifluoromethyl)-2,3,4a,9b-tetrahydro-1H-spiro[benzofuro[3,2-b]pyridine-4,1′-cyclopropan]-1-yl)methanone]: under 100 nM. For `Nc1nc2cnc(C(=O)N3CCC4(CC4)[C@@H]4Oc5cc(C(F)(F)F)ccc5[C@@H]43)cc2n2cncc12` [Ff-677, (4-aminoimidazo[1,5-a]pyrido[3,4-e]pyrazin-8-yl)((4aS,9bS)-7-(trifluoromethyl)-2,3,4a,9b-tetrahydro-1H-spiro[benzofuro[3,2-b]pyridine-4,1′-cyclopropan]-1-yl)methanone], the CC50 was under 100 nM.

Take `Cc1ncc2c(N)nc3cnc(C(=O)N4CCC5(CC5)[C@@H]5Oc6cc(C(F)(F)F)ccc6[C@@H]54)cc3n12` [Ff-679, (4-amino-1-methylimidazo[1,5-a]pyrido[3,4-e]pyrazin-8-yl)((4aS,9bS)-7-(trifluoromethyl)-2,3,4a,9b-tetrahydro-1H-spiro[benzofuro[3,2-b]pyridine-4,1′-cyclopropan]-1-yl)methanone]: the CC50 was under 100 nM. Take `Cc1ncn2c1c(N)nc1cnc(C(=O)N3CCC[C@@H]4Oc5cc(-c6cnn(C(F)(F)F)c6)ccc5[C@@H]43)cc12` [Ff-683, (4-amino-3-methylimidazo[1,5-a]pyrido[3,4-e]pyrazin-8-yl)((4aS,9bS)-7-(1-(trifluoromethyl)-1H-pyrazol-4-yl)-3,4,4a,9b-tetrahydrobenzofuro[3,2-b]pyridin-1(2H)-yl)methanone]: the CC50 was under 100 nM. As for `C[C@H]1CN(C(=O)c2cc3c(cc2F)nc(N)c2cncn23)[C@H]2c3ccc(C(F)(F)F)c(F)c3C[C@H]2O1` [Ff-690, (4-amino-7-fluoroimidazo[1,5-a]quinoxalin-8-yl)((2S,4aS,9aR)-8-fluoro-2-methyl-7-(trifluoromethyl)-2,3,9,9a-tetrahydroindeno[2,1-b][1,4]oxazin-4(4aH)-yl)methanone], the CC50 was under 100 nM. For `Nc1nc2cc(F)c(C(=O)N3CCO[C@@H]4Cc5c(ccc(C(F)(F)F)c5F)[C@@H]43)cc2n2cncc12` [Ff-691, (4-amino-7-fluoroimidazo[1,5-a]quinoxalin-8-yl)((4aS,9aR)-8-fluoro-7-(trifluoromethyl)-2,3,9,9a-tetrahydroindeno[2,1-b][1,4]oxazin-4(4aH)-yl)methanone] the value was 100 to 1000 nM. The same measure for `Cc1ncc2c3cc(C(=O)N(Cc4ccc(C(F)(F)F)cn4)[C@H](C)c4ncccn4)c(F)cc3nc(N)n12` [Fg-17, (R)-5-amino-8-fluoro-3-methyl-N-(1-(pyrimidin-2-yl)ethyl)-N-((5-(trifluoromethyl)pyridin-2-yl)methyl)imidazo[1,5-c]quinazoline-9-carboxamide]: under 100 nM; for `Cc1ncn2c1c(N)nc1cc(Cl)c(C(=O)N3CCC[C@@H]4Oc5cc(C(F)(F)F)ncc5[C@@H]43)cc12` [Fg-19, (4-amino-7-chloro-3-methylimidazo[1,5-a]quinoxalin-8-yl)((4aS,9bS)-7-(trifluoromethyl)-3,4,4a,9b-tetrahydrofuro[3,2-b:4,5-c′]dipyridin-1(2H)-yl)methanone]: under 100 nM. As for `C[C@@H]1C[C@@H]2Oc3cc(C(F)(F)F)ncc3[C@@H]2N(C(=O)c2cc3c(cc2F)nc(N)c2cncn23)C1` [Fg-20, (4-amino-7-fluoroimidazo[1,5-a]quinoxalin-8-yl)((3R,4aS,9bS)-3-methyl-7-(trifluoromethyl)-3,4,4a,9b-tetrahydrofuro[3,2-b:4,5-c′]dipyridin-1(2H)-yl)methanone], the CC50 was under 100 nM.

On to `Cc1ncn2c1c(N)nc1cc(F)c(C(=O)N3C[C@H](C)C[C@@H]4Oc5cc(C(F)(F)F)ncc5[C@@H]43)cc12` [Fg-21, (4-amino-7-fluoro-3-methylimidazo[1,5-a]quinoxalin-8-yl)((3R,4aS,9bS)-3-methyl-7-(trifluoromethyl)-3,4,4a,9b-tetrahydrofuro[3,2-b:4,5-c′]dipyridin-1(2H)-yl)methanone], for which the CC50 is under 100 nM. The same measure for `Nc1nc2cc(F)c(C(=O)N3CCO[C@@H]4Cc5cc(OC(F)F)ccc5[C@@H]43)cc2n2cncc12` [Fg-24, (4-amino-7-fluoroimidazo[1,5-a]quinoxalin-8-yl)((4aS,9aR)-7-(difluoromethoxy)-2,3,9,9a-tetrahydroindeno[2,1-b][1,4]oxazin-4(4aH)-yl)methanone]: under 100 nM.
